In patent US20190307771A1, “METHODS AND COMPOSITIONS FOR THE TREATMENT OF CANCER AND METABOLIC DISEASES” (THE REGENTS OF THE UNIVERSITY OF CALIFORNIA, priority 2016, published 2019):
Entries after “also recorded” stand apart in the source; their conditions may differ. One block for each compound: values may come before it.

What was measured:
[1] = tested on: Gpr41, Gpr43, Gpr109a, Pgc1α, Pepck, Fas; assay: Ileal and hepatic mRNA levels in mice after oral gavage; type: in vivo, C57BL/6 mice; settings: RA 15 mg/kg and/or butyrate 500 mg/kg, oral gavage every other day for one week
NUR77 = assay: ChIP-qPCR and RT-PCR: NUR77 binding to BRE and CCND2 and their mRNA; type: cell-based; settings: HCT116 cells
Experimental: NUR77 and RARβ acetylation status was also studied because protein acetylation alters nuclear receptor activity^37. […] To study the effect of RA/butyrate in modulating NUR77 and RARβ transcriptional activity, ChIP-qPCR and RT-PCR were performed to determine receptor binding to transcriptional regulatory regions and mRNA levels of downstream targets, respectively.
(§1) Chromatin immunoprecipitation (ChIP)-qPCR ChIP-qPCR was performed as described previously^21. Briefly, chromatin lysate was precleared before incubation with an anti-H3K9AC antibody (Millipore. Billerica, Mass.), anti-HDAC1 and anti-HDAC4 (Cell signaling technology, Beverly, Mass.) or anti-SIRT1 antibody (Santa Cruz Biotechnology, Santa Cruz, Calif.). IgG (Santa Cruz Biotechnology, Santa Cruz, Calif.) and RNA Polymerase II antibody (Millipore, Billerica, Mass.) were used as negative and positive controls, respectively. Samples were incubated with Dynase beads at 4° C. overnight followed by de-crosslinking and purification. DNA fragments generated served as templates for qPCR using Power SYBR1 Green PCR Master Mix.

[2] = cited from earlier work
RARB and NUR77 genes = assay: ChIP-qPCR: HDAC recruitment and H3K9 acetylation at RARB and NUR77 genes in HCT116 cells; type: cell-based; settings: RA 10 μM, butyrate 5 mM, SAHA 5 μM
Experimental: Cell lysates were used for ChIP with antibodies specific for HDAC1, HDAC4, SIRT1, or acetylated H3K9, followed by qPCR using primers specific for the RARB and NUR77 genes. DMSO treated cells and IP using IgG were included as negative controls. […]inding was expressed relative to the IgG negative controls.
as §1

DLD-1 colon cancer cells = assay: Cell viability of DLD-1 cells; settings: 48 hours, RA 10 μM, butyrate 5 mM, propionate 10 mM, valerate 10 mM, SAHA 5 μM, vs. DMSO
Experimental: HCT116 and DLD-1 colon cancer cells were treated with dimethyl sulfoxide (DMSO) only (as a negative control), RA (10 μM), Fenretinide (10 μM), or an HDAC inhibitor. […] SCFAs were selected from butyrate (5 mM), propionate (10 mM), and valerate (10 mM). Some HCT116 and DLD-1 cells were treated separately with a combination of RA and one of the SCFAs. Cells were treated for 48 hours before viability was assessed.

[3] = tested on: retinoic acid receptor beta (RARβ); assay: RARB expression in HCT116 cells (qRT-PCR); type: cell-based; settings: 24 hours, RA 10 μM, butyrate 5 mM, SAHA 5 μM
Experimental: (§2) Total RNA was extracted with TRIzol Reagent (Invitrogen, Carlsbad, Calif.), and cDNA was generated using High Capacity RNA-to-cDNA Kit (Applied Biosystems, Carlsbad, Calif.). qRT-PCR was performed on ABI 7900HT Fast Real time PCR system using Power SYBR® Green PCR Master Mix (Applied Biosystems, Carlsbad, Calif.).

miR-22 [4] = assay: miR-22 expression in HCT116 cells (qRT-PCR); type: cell-based; settings: 24 hours, RA 10 μM, butyrate 5 mM, propionate 10 mM, valerate 10 mM, SAHA 5 μM
Experimental: To study the effect of RA and HDAC inhibitors on miR-22 expression, HCT116 cells were treated with RA, butyrate, propionate, valerate, and SAHA. The SCFA concentrations used were within physiologic ranges^35.
as §2

[5] = tested on: liver cancer cells (Huh7, Hep3B, HepG2); settings: cited from earlier work; for Apoptosis of liver cancer cells: published studies
NUR77 and RARβ = assay: Induction and localization of NUR77 and RARβ in HCT116 cells; type: cell-based; settings: 48 hours, RA 10 μM, butyrate 5 mM, SAHA 5 μM, EGF 32 nM
Experimental: Proteins were immunoprecipitated by anti-NUR77 or anti-RARβ antibodies, or IgG, followed by Western blot using anti-RARβ or anti-NUR77 antibodies.
To study the effect of miR-22 in induction of cytosolic NUR77 by RA/butyrate, adenoviral-delivery of miR-22 inhibitors tagged with green fluorescence (adeno-miR-22 inhibitor-GFP, Applied Biological Materials Inc, Richond, BC) were used to infect HCT116 cells. At 48 hours post adenoviral infection, cells were treated with RA (10 μM) plus butyrate (5 mM) or DMSO for 24 hours. […] Cells were mounted in ProLong® Gold Antifade Reagent with DAPI (4′,6-diamidino-2-phenylindole, Life Technologies, Carlsbad, Calif.) and imaged under Keyence BZ-9000 microscope.

[6] = tested on: HDAC1, HDAC4, SIRT1, cyclin A2 (CCNA2); assay: Western blot of protein deacetylases and cyclin A2 in HCT116 cells; type: cell-based; settings: 24 hours, RA 10 μM, butyrate 5 mM, SAHA 5 μM
[7] = tested on: liver cancer cells (Huh7, Hep3B, HepG2); assay: Apoptosis of liver cancer cells; settings: prevented by NUR77 siRNA
[8] = cited from earlier work; remark: listed apart in the source
[9] = T2DM and NAFLD patients; cited from earlier work
miR-22 [10] = assay: miR-22 induction by bile acids, FXR agonist and vitamin D3; settings: unpublished data
primary liver cancer = settings: cited from earlier work
[11] = FXR KO mice, depletion of BAs; cited from earlier work
[12] = FXR KO mice: steatohepatitis and liver cancer; type: in vivo; settings: 10 months old Western diet-fed FXR KO mice; 100 mg/liter in drinking water for three months
From the text: The treatment was started when mice were seven months old. Mice were sacrificed when they were ten months old. n>4.
FXR KO mice have increased insulin resistance accompanied by elevated BAs with increased DCA and develop liver cancer when they are about 15 months old (FIG. 24). […] In addition, FXR KO mice also had reduced Erysipelotrichaceae and Coriobacteriaceae, which have many beneficial health effects (FIG. 25A). Consistently, FXR KO mice had reduced bcoA, which generates butyrate, and increased baiJ and dsrA that generate DCA and hydrogen sulfide, respectively (FIG. 25B). Moreover, 10 months old Western diet-fed FXR KO mice developed severe steatohepatitis with massive hepatic lymphocyte infiltration, which could be eliminated by polymyxin B. This exciting finding clearly indicated the role of Gram-negative bacteria in contributing to hepatic inflammation (FIG. 26). […] Because it takes about 10-15 months for FXR KO mice to develop liver cancer, we will introduce Met/β-catenin plasmids by using sleep beauty transposon system into FXR KO mice via hydrodynamic tail vein injection to induce liver cancer. In wild type mice, these plasmids, which have been provided by Dr. Xin Chen at UCSF, can induce liver cancer within a month post-injection. In the presence of dysbiosis and dysregulated BAs, liver cancer formation is expected to be facilitated and may occur even earlier. […]

NUR77 binding to BRE and CCND2 promoter regions and their mRNA levels (NUR77 transcriptional activity) (NUR77): not RA alone
Compound: CC1=C(/C=C/C(C)=C/C=C/C(C)=C/C(=O)O)C(C)(C)CCC1 [RA, all-trans retinoic acid]
Expression of Gpr41 and Gpr43 [1]: could induce the expression | Microbiota phenotype, metabolism and liver regeneration ([2]; RA prior to liver resection): lean microbiota phenotype, improved metabolism as well as accelerated liver regeneration | Ratio of Firmicutes to Bacteroidetes ([2]; one day after liver resection): reduced ratio of Firmicutes to Bacteroidetes | Recruitment of HDAC4 and SIRT1 to the RARB gene (ChIP-qPCR) (RARB and NUR77 genes): not | Cell viability (DLD-1 colon cancer cells): reduced cell viability | RARB (RARβ) expression / transcription [3]: upregulated | miR-22 expression level (miR-22 [4]): upregulated; also recorded: induced miR-22 expression; also recorded: could induce miR-22; also recorded: increased miR-22 level | Apoptosis of liver cancer cells [5]: not as effective as fenretinide in inducing apoptosis | Induction and localization of NUR77 and RARβ (immunostaining) (NUR77 and RARβ): modestly induced both receptors in the nucleus | Protein levels of HDAC1, HDAC4, SIRT1, and cyclin A2 (CCNA2) [6]: reduced HDAC1, HDAC4, SIRT1, and CCNA2 protein levels

Compound: O=C(CCCCCN1C(=O)c2cccc3cccc(c23)C1=O)NO [Scriptaid]
Apoptosis of Huh7 cells [7]: induced apoptosis of Huh7 cells

Compound: CC1=C(/C=C/C(C)=C/C=C/C(C)=C/C(=O)Nc2ccc(O)cc2)C(C)(C)CCC1 [fenretinide, N-(4-hydroxyphenyl) retinamide]
Apoptosis of Huh7 cells [7]: induced apoptosis of Huh7 cells | Tumor response ([8]; NCI case report, advanced cutaneous T-cell lymphoma patient): tumor response | Stabilization of the disease ([8]; Phase II, small cell lung cancer): 24 % of the patients | Tolerability ([8]; breast cancer chemoprevention study (3000 patients, 5 year), Phase II small cell lung cancer): well tolerated in humans; also recorded: well tolerated in patients with small cell lung cancer | Apoptotic effect in HepG2 ([5]; HepG2 vs. Huh7 and Hep3B): resistant to the apoptotic effect | Apoptosis of liver cancer cells [5]: effectively induces apoptosis of liver cancer cells; also recorded: much better apoptosis inducer than RA

Compound: CC[C@H]1[C@@H](O)[C@@H]2[C@H](CC[C@]3(C)[C@@H]([C@H](C)CCC(=O)O)CC[C@@H]23)[C@@]2(C)CC[C@@H](O)C[C@@H]12 [obetacholic acid]
Insulin sensitivity, liver inflammation and fibrosis [9]: improves insulin sensitivity and reduces liver inflammation as well as fibrosis | miR-22 induction (miR-22 [10]): effective in inducing miR-22

Compound: CNC(=O)c1cc(Oc2ccc(NC(=O)Nc3ccc(Cl)c(C(F)(F)F)c3)cc2)ccn1 [sorafenib]
Increase of survival (primary liver cancer): 6 months

Compound: cholestyramine
Liver cancer formation [11]: prevented liver cancer formation

Compound: polymyxin B
Severe steatohepatitis with massive hepatic lymphocyte infiltration [12]: eliminated
